The values that follow come from the NIST ThermoML archive (doi:10.1016/j.jct.2012.03.015).

Numbers after ± are expanded uncertainties.

A short description of the first data set: activity coefficient (dimensionless); of the first substance listed, at infinite dilution; xn = mol fraction of the nth substance listed. To be noted: 348.15 K; 101 kPa; Liquid; Chromatography; x1 = 0.
`CCCC=O` [butanal] + COCC[N+]1(C)CCCC1.O=S(=O)([N-]S(=O)(=O)C(F)(F)F)C(F)(F)F: the activity coefficient was determined as 0.851 ± 0.055.
Still for that read-out and setting: as for `CCCCC` [pentane] + COCC[N+]1(C)CCCC1.O=S(=O)([N-]S(=O)(=O)C(F)(F)F)C(F)(F)F, the figure is 11.5 ± 0.8.
In the case of `CC(C)CO` [2-methyl-1-propanol] + COCC[N+]1(C)CCCC1.O=S(=O)([N-]S(=O)(=O)C(F)(F)F)C(F)(F)F, the activity coefficient was 2.01 ± 0.14.
Still for that read-out and setting: under `C1COCCO1` [1,4-dioxane] + COCC[N+]1(C)CCCC1.O=S(=O)([N-]S(=O)(=O)C(F)(F)F)C(F)(F)F stands 0.72 ± 0.05; under `CCC(=O)OC` [methyl propanoate] + COCC[N+]1(C)CCCC1.O=S(=O)([N-]S(=O)(=O)C(F)(F)F)C(F)(F)F, 0.98 ± 0.06; under `CCCCO` [butan-1-ol] + COCC[N+]1(C)CCCC1.O=S(=O)([N-]S(=O)(=O)C(F)(F)F)C(F)(F)F, 2.16 ± 0.15.
Same read-out and setting: under `CCC(C)(C)OC` [2-methoxy-2-methylbutane] + COCC[N+]1(C)CCCC1.O=S(=O)([N-]S(=O)(=O)C(F)(F)F)C(F)(F)F stands 4.03 ± 0.27.
Still for that read-out and setting: under `CCCCCCCC` [octane] + COCC[N+]1(C)CCCC1.O=S(=O)([N-]S(=O)(=O)C(F)(F)F)C(F)(F)F stands 31.4 ± 2.1.
Take `CCO` [ethanol] + COCC[N+]1(C)CCCC1.O=S(=O)([N-]S(=O)(=O)C(F)(F)F)C(F)(F)F: the activity coefficient was found to be 1.38 ± 0.09.
The same measure, in the same setting: under `CCC(C)O` (configuration not stated) [butan-2-ol] + COCC[N+]1(C)CCCC1.O=S(=O)([N-]S(=O)(=O)C(F)(F)F)C(F)(F)F stands 1.85 ± 0.12; under `CCc1ccccc1` [ethylbenzene] + COCC[N+]1(C)CCCC1.O=S(=O)([N-]S(=O)(=O)C(F)(F)F)C(F)(F)F, 2.25 ± 0.15.
Same read-out and setting: as for `C1=CCCCC1` [cyclohexene] + COCC[N+]1(C)CCCC1.O=S(=O)([N-]S(=O)(=O)C(F)(F)F)C(F)(F)F, the figure is 5.44 ± 0.37; as for `CC#N` [acetonitrile] + COCC[N+]1(C)CCCC1.O=S(=O)([N-]S(=O)(=O)C(F)(F)F)C(F)(F)F, 0.474 ± 0.037.
The same measure, in the same setting: as for `C=CCCCCCCCC` [1-decene] + COCC[N+]1(C)CCCC1.O=S(=O)([N-]S(=O)(=O)C(F)(F)F)C(F)(F)F, the figure is 33.8 ± 2.3; as for `CCCOCCC` [dipropyl ether] + COCC[N+]1(C)CCCC1.O=S(=O)([N-]S(=O)(=O)C(F)(F)F)C(F)(F)F, 6.64 ± 0.45.
Turning to `Cc1ccc(C)cc1` [1,4-dimethylbenzene] + COCC[N+]1(C)CCCC1.O=S(=O)([N-]S(=O)(=O)C(F)(F)F)C(F)(F)F, the activity coefficient came to 2.2 ± 0.15.
The same measure, in the same setting: under `C1CCOC1` [tetrahydrofuran] + COCC[N+]1(C)CCCC1.O=S(=O)([N-]S(=O)(=O)C(F)(F)F)C(F)(F)F stands 0.86 ± 0.06.
Still for that read-out and setting: under `CCC[N+](=O)[O-]` [1-nitropropane] + COCC[N+]1(C)CCCC1.O=S(=O)([N-]S(=O)(=O)C(F)(F)F)C(F)(F)F stands 0.744 ± 0.049; under `C=C(C)c1ccccc1` [(1-methylethenyl)benzene] + COCC[N+]1(C)CCCC1.O=S(=O)([N-]S(=O)(=O)C(F)(F)F)C(F)(F)F, 2.03 ± 0.14; under `CCOC(C)=O` [ethyl acetate] + COCC[N+]1(C)CCCC1.O=S(=O)([N-]S(=O)(=O)C(F)(F)F)C(F)(F)F, 1 ± 0.06.
With `c1ccsc1` [thiophene] + COCC[N+]1(C)CCCC1.O=S(=O)([N-]S(=O)(=O)C(F)(F)F)C(F)(F)F, the activity coefficient is 0.918 ± 0.058.
As for `C=CCCCCCC` [oct-1-ene] + COCC[N+]1(C)CCCC1.O=S(=O)([N-]S(=O)(=O)C(F)(F)F)C(F)(F)F, the activity coefficient is 17.3 ± 1.2.
With `CCCCCCC` [heptane] + COCC[N+]1(C)CCCC1.O=S(=O)([N-]S(=O)(=O)C(F)(F)F)C(F)(F)F, the activity coefficient is 22.6 ± 1.5.
Same read-out and setting: under `C#CCCCCCC` [1-octyne] + COCC[N+]1(C)CCCC1.O=S(=O)([N-]S(=O)(=O)C(F)(F)F)C(F)(F)F stands 6.48 ± 0.44; under `C=CCCCCC` [1-heptene] + COCC[N+]1(C)CCCC1.O=S(=O)([N-]S(=O)(=O)C(F)(F)F)C(F)(F)F, 12.3 ± 0.8.

The same data set, now with this note: 358.15 K; 101 kPa; Liquid; Chromatography; x1 = 0.
`CCCC=O` [butanal] + COCC[N+]1(C)CCCC1.O=S(=O)([N-]S(=O)(=O)C(F)(F)F)C(F)(F)F: the activity coefficient came to 0.864 ± 0.055.
The same measure, in the same setting: as for `CCCCC` [pentane] + COCC[N+]1(C)CCCC1.O=S(=O)([N-]S(=O)(=O)C(F)(F)F)C(F)(F)F, the figure is 11 ± 0.8; as for `CC(C)CO` [2-methyl-1-propanol] + COCC[N+]1(C)CCCC1.O=S(=O)([N-]S(=O)(=O)C(F)(F)F)C(F)(F)F, 1.84 ± 0.12; as for `C1COCCO1` [1,4-dioxane] + COCC[N+]1(C)CCCC1.O=S(=O)([N-]S(=O)(=O)C(F)(F)F)C(F)(F)F, 0.74 ± 0.05.
The same measure, in the same setting: as for `CCC(=O)OC` [methyl propanoate] + COCC[N+]1(C)CCCC1.O=S(=O)([N-]S(=O)(=O)C(F)(F)F)C(F)(F)F, the figure is 0.99 ± 0.06; as for `CCCCO` [butan-1-ol] + COCC[N+]1(C)CCCC1.O=S(=O)([N-]S(=O)(=O)C(F)(F)F)C(F)(F)F, 1.98 ± 0.13; as for `CCC(C)(C)OC` [2-methoxy-2-methylbutane] + COCC[N+]1(C)CCCC1.O=S(=O)([N-]S(=O)(=O)C(F)(F)F)C(F)(F)F, 4.01 ± 0.27.
Regarding `CCCCCCCC` [octane] + COCC[N+]1(C)CCCC1.O=S(=O)([N-]S(=O)(=O)C(F)(F)F)C(F)(F)F, the activity coefficient was 29 ± 2.
On the same count and under the same terms, under `CCO` [ethanol] + COCC[N+]1(C)CCCC1.O=S(=O)([N-]S(=O)(=O)C(F)(F)F)C(F)(F)F stands 1.28 ± 0.08.
On the same count and under the same terms, under `CCC(C)O` (configuration not stated) [butan-2-ol] + COCC[N+]1(C)CCCC1.O=S(=O)([N-]S(=O)(=O)C(F)(F)F)C(F)(F)F stands 1.72 ± 0.12; under `CCc1ccccc1` [ethylbenzene] + COCC[N+]1(C)CCCC1.O=S(=O)([N-]S(=O)(=O)C(F)(F)F)C(F)(F)F, 2.25 ± 0.15.
The same measure, in the same setting: under `C1=CCCCC1` [cyclohexene] + COCC[N+]1(C)CCCC1.O=S(=O)([N-]S(=O)(=O)C(F)(F)F)C(F)(F)F stands 5.27 ± 0.36.
